Reference: US7960433B2, “Treatment of chemokine mediated diseases” (Schering Corporation, priority 2002, dated 2011)

How the values were obtained:
[1] = system: myeloperoxidase (MPO) activity; test: Carrageenan-induced rat paw edema model: MPO activity in hindpaw inflammatory fluid (neutrophil accumulation); format: in vivo, male Sprague-Dawley rats; conditions: oral, 3 hrs after carrageenan; Compound A 1 mg/kg, indomethacin 0.5 mg/kg, alone or combined
Description: Carrageenan (0.05 ml of an 1% solution in saline) was injected into one hindpaw of male Sprague-Dawley rats. Paw volumes (ml) were measured by a water displacement plethysmometer prior to and 3 h after the injection of carrageenan. The increase in paw volume that occurred between the two timepoints was determined for each group. Rats received Compound A:
(§1) [drawing 179] (see Example 405 of WO 02/083624) or standard drugs in methylcellulose vehicle by the oral route, 1 hr before carrageenan injection. The percentage by which the edematous response was inhibited was calculated by comparing the increase in paw edema of drug-treated rats to that of vehicle-treated controls. To determine neutrophil accumulation in the paws, rats were sacrificed at 3 hrs and myeloperoxidase (MPO) activity was measured from inflammatory fluid expressed from the hindpaw using a colorimetric assay (Bradley et al., 1982). PGE2 production in the hindpaw was assessed by ELISA (R&D Systems, Minneapolis, Minn.).

PGE2 [2] = test: Carrageenan-induced rat paw edema model: PGE2 production in the hindpaw (ELISA); format: in vivo, male Sprague-Dawley rats; conditions: oral; Compound A 1 mg/kg, betamethasone 0.05 mg/kg, alone or combined
Description: as §1, with “Carrageenan (0.05 ml of an 1% solution in saline) was injected into one hindpaw of male Sprague-Dawley rats. […] The increase in paw volume that occurred between the two timepoints was determined for each group. Rats received Compound A: [drawing” for “[drawing”

[3] = system: SCW-induced knee swelling; test: Streptococcal cell wall-induced mouse knee swelling model: knee swelling; format: in vivo, female C57BL/6J mice; conditions: 2 hours after SCW injection
Description: (§2) The method described by Lubberts et al, 1998 was used for these studies, with some modifications. Female 8-12 week old C57BL/6J animals were fasted overnight and dosed orally with Compound A, indomethacin, or a combination of these agents suspended in methylcellulose one hour prior to a single intra-articular injection of 6 μl containing 25 μg of bacterial SCW (4.32 mg/ml rhammose; Lee Laboratories, Grayson, Ga.) in saline into the right knee joint. The left knee joint received an injection of 6 μl of saline at the same time. In other experiments, a neutralizing rat anti-mouse TNFα antibody or matched rat IgG isotype control was administered intraperitoneally two hours prior to SCW injection and Compound A or methylcellulose vehicle was orally administered one hour prior to SCW injection. Knee swelling measurements were performed 2 hours after SCW injection using a dial-gauge caliper ([…], Athol, Mass.) by measuring the difference in swelling between the right and left knee joints. Patellar organ cultures for assessment of synovial cytokine and chemokine and prostaglandin levels were prepared at 2 hours after SCW injection and established as described (Lubberts et al, 1998), using ELISA kits obtained from R&D Systems (Minneapolis, Minn.). Statistical analysis was performed using the Student's t-test, with p<0.05 considered to be indicative of statistical significant differences between groups.

PGE2 [4] = test: SCW mouse knee model: PGE2 levels in patellar organ culture; format: in vivo, female C57BL/6J mice
Description: as §2, with “Statistical analysis was performed using the Student's t-test, with p<0.05 considered to be indicative of statistical significant differences between groups.” left out

IL-1β = test: SCW mouse knee model: IL-1β production by ex vivo patellar organ culture; format: in vivo, female C57BL/6J mice
Description: as §2

[5] = system: carrageenan-induced paw edema; test: Carrageenan-induced rat paw edema model: paw volume; format: in vivo, male Sprague-Dawley rats; conditions: oral, 1 hr before carrageenan, paw volume at 3 h; suboptimal doses: Compound A 1 mg/kg, indomethacin 0.5 mg/kg, betamethasone 0.05 mg/kg, alone or combined
Description: as §1, with “Carrageenan (0.05 ml of an 1% solution in saline) was injected into one hindpaw of male Sprague-Dawley rats. […] The increase in paw volume that occurred between the two timepoints was determined for each group. Rats received Compound A: [drawing” for “[drawing”

[6] = indomethacin alone (2 mg/kg oral)

Row | SMILES | inhibition of MPO activity in the hindpaw [1] | inhibition of paw PGE2 levels (PGE2 [2]) | inhibition of knee swelling ([3]; Compound A 10 mg/kg oral, alone or with indomethacin 2 mg/kg) | inhibition of knee swelling ([3]; Compound A 25 mg/kg oral, alone or with indomethacin 2 mg/kg) | inhibition of PGE2 levels in patellar organ culture (PGE2 [4]; Compound A alone at 10-25 mg/kg oral) | inhibition of IL-1β production by ex vivo patellar organ culture (IL-1β; Compound A 10 mg/kg oral, alone or with indomethacin) | inhibition of IL-1β production by ex vivo patellar organ culture (IL-1β; Compound A 25 mg/kg oral, alone or with indomethacin) | inhibition of paw edema [5] | inhibition of knee swelling ([3]; indomethacin 2 mg/kg oral alone) | inhibition of PGE2 levels in patellar organ culture (PGE2 [4]; [6]) | inhibition of IL-1β production by ex vivo patellar organ culture (IL-1β; [6])
1 | CC[C@@H](Nc1c(Nc2cccc(C(=O)N(C)C)c2O)c(=O)c1=O)c1ccc(C)o1 [Compound A] | 67% | 31% | 46% | 70% | 34-40% | 49% | 64% | 20% |  |  | 
2 | C[C@H]1C[C@H]2[C@@H]3CCC4=CC(=O)C=C[C@]4(C)[C@@]3(F)[C@@H](O)C[C@]2(C)[C@@]1(O)C(=O)CO [betamethasone, reference compound] |  | 31% |  |  |  |  |  | 32% |  |  | 
3 | COc1ccc2c(c1)c(CC(=O)O)c(C)n2C(=O)c1ccc(Cl)cc1 [indomethacin, reference compound] | −58% |  |  |  |  |  |  | 0% | 42% | 89% | 11%
